Laboratory results from patent US10016382B2, “Method for decreasing skeletal muscle damage and/or oxidative stress in mammals” (LONZA INC., priority 2014, dated 2018).
Values joined by “and” are separate entries in the source; they are usually repeats but may differ in a detail not shown here. Equal values may be shown once.

System: Creatine kinase (CK)
Assay: Serum creatine kinase (muscle damage biomarker), Example 1
Assay type: in vivo, dog
Settings: for Creatine Kinase, serum, Mean / Change in Creatine Kinase Activity, post-run minus pre-run: Ex.1, 250 mg/d; for Change in Creatine Kinase Activity, post-run minus pre-run: following 15 mile long run at 13 wk, mean ± SEM
Experimental: Blood Analysis: Serum samples were taken at three different times from each dog during the 90 day period. The blood samples were collected as follows: 1.) just prior to scanning each dog for body composition at the beginning of the study, 2.) prior to the long run on the 13th week, and 3.) following the long run on the 13th week. The serum samples were analyzed for Phosphocreatine Kinase and Canine Myoglobin to determine the amount of muscle protein leakage that occurred following the long run and TBARS and Total Antioxidant Capacity (TAC) were determined to evaluate the antioxidant status of each of the test dogs during the exercise program. The final blood sample was taken 24 hr after the long run to obtain maximum protein leakage based on previous similar types of exercise research with human athletes. Biomarkers and Assay Methods: Blood was drawn from each dog using a serum separator tube at three different times during the 90 day period: 1.) just prior to scanning each dog for body composition at the beginning of the study, 2.) prior to the long run on the 13th week, and 3.) following the long run on the 13th week. The final blood sample was taken 24 hr after the long run to obtain maximum protein leakage based on previous similar types of exercise research with human athletes. Each time after the blood was drawn it was allowed to clot before being centrifuged for 15 min at 2000 g at 4° C. Serum was aliquoted into 1.5 mL microcentrifuge tubes and stored at −80° C. until assays were ran following the end of the study. Creatine kinase (CK) and canine myoglobin were measured to determine the amount of muscle protein leakage that occurred following the long run. Thiobarbituric acid reactive substances (TBARS) and total antioxidant capacity (TAC) were measured to evaluate the antioxidant status of each of the test dogs during the exercise program. Serum samples were analyzed for total antioxidant capacity (TAC) and thiobarbituric acid reactive substances (TBARS) using commercially available colorimetric kits supplied by Cayman Chemical Company (Ann Arbor, Mich.) per manufacturer instructions. Serum canine myoglobin levels were determined using a commercially available ELISA supplied by Innovate Research (Novi, Mich.) per manufacturer instructions. Creatine kinase activity was determined colorimetrically using a commercially available kit supplied by BioVision (San Francisco, Calif.).

SMILES: C[N+](C)(C)C[C@H](O)CC(=O)[O-] [L-carnitine]
- Creatine Kinase Least Sq Mean (Baseline): 24.88 mU/mL
- Creatine Kinase Least Sq Mean (Baseline, F): 35.85 mU/mL
- Creatine Kinase Least Sq Mean (Baseline, M): 13.91 mU/mL
- Creatine Kinase, serum, Mean (Baseline, both sexes): 22.9 mU · mL
- Creatine Kinase, serum, Mean (Baseline, females): 35.8 mU · mL
- Creatine Kinase, serum, Mean (Baseline, males): 13.9 mU · mL
- Creatine Kinase, serum, Mean (Post-run (24 hr after 15 mile run), both sexes): 16.1 mU · mL
- Creatine Kinase, serum, Mean (Post-run, females): 19.9 mU · mL
- Creatine Kinase, serum, Mean (Post-run, males): 12.2 mU · mL
- Creatine Kinase, serum, Mean (Pre-run (24 hr before 15 mile run), both sexes): 7.0 mU · mL
- Creatine Kinase, serum, Mean (Pre-run, females): 6.9 mU · mL
- Creatine Kinase, serum, Mean (Pre-run, males): 7.0 mU · mL
- Change in Creatine Kinase Activity, post-run minus pre-run (both sexes, text: units): 9.3 and 9.3 ± 1.86 n = 18
- Change in Creatine Kinase Activity, post-run minus pre-run (females): 13.06 ± 2.06 n = 9
- Change in Creatine Kinase Activity, post-run minus pre-run (males): 5.54 and 5.54 ± 2.63 n = 9
- Creatine Kinase Least Sq Mean (Post-run): 16.08 mU/mL
- Creatine Kinase Least Sq Mean (Post-run, F): 19.94 mU/mL
- Creatine Kinase Least Sq Mean (Post-run, M): 12.21 mU/mL
- Creatine Kinase Least Sq Mean (Pre-run): 6.96 mU/mL
- Creatine Kinase Least Sq Mean (Pre-run, F): 6.888 mU/mL
- Creatine Kinase Least Sq Mean (Pre-run, M): 7.032 mU/mL
- Creatine Kinase Least Sq Mean (Treatment * Sex, F): 35.85 mU/mL
- Creatine Kinase Least Sq Mean (Treatment * Sex, M): 13.91 mU/mL
- Creatine Kinase Least Sq Mean (Treatment level, all dogs): 24.88 mU/mL
- Creatine Kinase, mixed model Estimate, term Time[Post-run-Pre-run] * Treatment[L-carnitine] (serum, model term): −2.544 mU/mL
- Creatine Kinase, mixed model Estimate, term Time[Post-run-Pre-run] * Treatment[L-carnitine] * Sex[F] (serum, model term): 1.335 mU/mL
- Creatine Kinase, mixed model Estimate, term Time[Pre-run-Baseline] * Treatment[L-carnitine] (serum, model term): −3.029 mU/mL
- Creatine Kinase, mixed model Estimate, term Time[Pre-run-Baseline] * Treatment[L-carnitine] * Sex[F] (serum, model term): −5.661 mU/mL
- Creatine Kinase, mixed model Estimate, term Treatment[L-carnitine] (serum, model term): 3.121 mU/mL
- Creatine Kinase, mixed model Estimate, term Treatment[L-carnitine] * Sex[F] (serum, model term): 5.935 mU/mL
